ChEMBL document CHEMBL2380203, “Structure-activity relationship of cytochrome bc1 reductase inhibitor broad spectrum antifungal ilicicolin H” (Bioorg Med Chem Lett, 2013)
In brackets after ≈: the same amount, converted by molar mass.

Assays:
[1] = tested on: Candida albicans; experiment: Antifungal activity against Candida albicans MY1055 assessed as growth inhibition after 24 hrs by liquid microdilution assay in presence of 10% mouse plasma; format: functional
[2] = tested on: Candida albicans; experiment: Ratio of MIC for Candida albicans MY1055 in presence of 10% mouse plasma to MIC for Candida albicans MY1055 in absence of mouse plasma; format: functional
[3] = Selectivity ratio of IC50 for Candida albicans MY1055 NADH:cytochrome bc1 reductase to IC50 for rat liver NADH:cytochrome bc1 reductase
[4] = Inhibition of Candida albicans MY1055 NADH:cytochrome bc1 reductase in presence of 40% mouse plasma; format: cell-free
[5] = Inhibition of rat liver NADH:cytochrome bc1 reductase
[6] = tested on: Candida albicans; experiment: Ratio of IC50 for Candida albicans MY1055 NADH:cytochrome bc1 reductase in presence of 40% mouse plasma to IC50 for Candida albicans MY1055 NADH:cytochrome bc1 reductase in absence of mouse plasma
[7] = tested on: Candida albicans; experiment: Antifungal activity against Candida albicans MY1055 assessed as growth inhibition after 24 hrs by liquid microdilution assay; format: functional; details: MY1055, 24 h
[8] = Inhibition of Candida albicans MY1055 NADH:cytochrome bc1 reductase
[9] = tested on: Candida albicans; experiment: Antifungal activity against Candida albicans MY1055 assessed as growth inhibition after 24 hrs by liquid microdilution assay in presence of 10% mouse plasma

## C/C=C/[C@@H]1[C@H]2C[C@@H](C)CC[C@@H]2C(C)=C[C@H]1C(=O)c1c(O)c(-c2ccc(O)cc2)c[nH]c1=O [ILICICOLIN H]
[1]
  MIC: > 1 µg/mL
[2]
  Ratio: >25
[3]
  Ratio IC50: > 1000
[4]
  IC50: 0.07 µg/mL
[5]
  IC50: 2 µg/mL (≈ 4.61 µM)
[6]
  Ratio IC50: 140
[7]
  MIC: 0.02 µg/mL (≈ 0.0461 µM)
[8]
  IC50: 0.0005 µg/mL (≈ 0.00115 µM)

## CC1=C[C@@H](C(=O)c2c(O)c(-c3ccc(O)cc3)c[nH]c2=O)[C@H]([C@@H]2OC2C)[C@H]2C[C@@H](C)CC[C@H]12 (stereo not given in full)
[1]
  MIC: > 1 µg/mL
[9]
  MIC: > 1 µg/mL
[4]
  IC50: 1 µg/mL
[5]
  IC50: 1 µg/mL (≈ 2.22 µM)
[6]
  Ratio IC50: 192
[7]
  MIC: 0.625 µg/mL (≈ 1.39 µM)
[8]
  IC50: 0.0052 µg/mL (≈ 0.0116 µM)
